According to article PMC5183552 (Neuropharmacology, 2016):
Like-named read-outs stand apart in the source and are kept apart here.

Key:
[1] = test system: mice; assay: Body temperature; format: in vivo, mouse
[2] = test system: mouse; conditions: 0.5 mg/kg, ref Luongo et al, 2012; cited from earlier work
[3] = target: T1, mouse A1AR (Mus musculus, UniProt Q60612); assay: Radioligand binding, recombinant mouse A1AR in HEK-293 membranes
T1 sequence (Q60612 1-326): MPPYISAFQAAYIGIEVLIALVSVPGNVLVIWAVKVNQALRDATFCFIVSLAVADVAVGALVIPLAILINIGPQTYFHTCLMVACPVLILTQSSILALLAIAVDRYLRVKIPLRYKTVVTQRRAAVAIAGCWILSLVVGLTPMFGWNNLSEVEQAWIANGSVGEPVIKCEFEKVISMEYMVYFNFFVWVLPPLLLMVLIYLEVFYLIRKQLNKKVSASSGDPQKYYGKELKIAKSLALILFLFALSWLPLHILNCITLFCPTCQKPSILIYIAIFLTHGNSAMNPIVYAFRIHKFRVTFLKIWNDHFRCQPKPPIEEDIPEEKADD

[4] = test system: mice; assay: Indirect calorimetry; format: in vivo, mouse; conditions: i.p.
[5] = target: T2, Human A2AAR (Homo sapiens, UniProt P29274); conditions: read-out: Ki, human A2AAR, cited from earlier work
[6] = test system: mice; assay: Temperature gradient; format: in vivo, mouse
[7] = target: T3, Human A3AR (Homo sapiens, UniProt P0DMS8); conditions: read-out: Ki, human A3AR; ref Franchetti et al, 2009; cited from earlier work
T3 sequence (P0DMS8 1-318): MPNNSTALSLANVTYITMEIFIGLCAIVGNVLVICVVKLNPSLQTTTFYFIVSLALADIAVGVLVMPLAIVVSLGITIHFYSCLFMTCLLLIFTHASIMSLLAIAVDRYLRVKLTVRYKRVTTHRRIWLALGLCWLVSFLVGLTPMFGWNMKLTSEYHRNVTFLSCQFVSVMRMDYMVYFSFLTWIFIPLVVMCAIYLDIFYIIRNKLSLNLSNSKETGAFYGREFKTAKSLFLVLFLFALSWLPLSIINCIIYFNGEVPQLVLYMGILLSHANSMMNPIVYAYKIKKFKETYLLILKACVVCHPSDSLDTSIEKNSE

[8] = target: T4, mouse A3AR (Mus musculus, UniProt Q61618); assay: Radioligand binding, recombinant mouse A3AR in HEK-293 membranes
T4 sequence (Q61618 1-319): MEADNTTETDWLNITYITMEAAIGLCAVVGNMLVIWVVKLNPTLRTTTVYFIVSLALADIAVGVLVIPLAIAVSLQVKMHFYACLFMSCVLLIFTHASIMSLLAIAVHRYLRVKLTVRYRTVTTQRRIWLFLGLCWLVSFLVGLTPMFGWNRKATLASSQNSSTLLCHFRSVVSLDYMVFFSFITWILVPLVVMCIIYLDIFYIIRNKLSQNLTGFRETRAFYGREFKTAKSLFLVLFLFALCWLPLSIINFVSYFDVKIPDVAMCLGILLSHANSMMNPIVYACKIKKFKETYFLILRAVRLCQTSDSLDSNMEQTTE

[9] = 500–3500 mg/kg, i.p.; ref Zhang et al, 2006; cited from earlier work
[10] = target: T4, mouse A3AR; conditions: cited from earlier work
[11] = target: T1, mouse A1AR; conditions: read-out: Ki, mouse A1AR, cited from earlier work
[12] = target: T5, mouse A2AAR (Mus musculus, UniProt Q60613); conditions: read-out: Ki, mouse A2AAR, 2006, cited from earlier work
[13] = target: T3, Human A3AR; assay: Ligand binding affinity at human A3AR
[14] = target: T5, mouse A2AAR; assay: Radioligand binding, recombinant mouse A2AAR in HEK-293 membranes; conditions: read-out: % inhibition at 10 µM, mouse A2AAR
[15] = target: T2, Human A2AAR; assay: Ligand binding affinity at human A2AAR
[16] = target: T6, Human A1AR (Homo sapiens, UniProt P30542); assay: Ligand binding affinity at human A1AR
T6 sequence (P30542 1-326): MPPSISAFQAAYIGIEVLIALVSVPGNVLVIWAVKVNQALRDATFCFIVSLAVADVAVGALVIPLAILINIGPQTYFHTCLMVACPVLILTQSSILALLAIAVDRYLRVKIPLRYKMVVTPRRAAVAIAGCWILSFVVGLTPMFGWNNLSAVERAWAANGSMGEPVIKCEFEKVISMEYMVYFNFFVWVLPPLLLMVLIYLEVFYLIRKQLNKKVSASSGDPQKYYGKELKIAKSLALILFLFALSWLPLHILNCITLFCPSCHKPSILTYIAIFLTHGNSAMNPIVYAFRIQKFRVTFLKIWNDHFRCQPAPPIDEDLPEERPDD

[17] = 3 mg/kg, i.p., raclopride 1 mg/kg, data not shown
[18] = C57BL/6J mice, 0.3–10 mg/kg, i.p.
[19] = Adora3−/− mice, 3 mg/kg, before the Tb nadir
[20] = C57BL/6J mice, 100 µg/mouse (~3.3 mg/kg), i.c.v.
[21] = C57BL/6J mice, 0.02–0.2 mg/kg, i.p., dose-dependent
[22] = C57BL/6J mice, 0.03–3 mg/kg, i.p.

T5 sequence (Q60613 whole entry): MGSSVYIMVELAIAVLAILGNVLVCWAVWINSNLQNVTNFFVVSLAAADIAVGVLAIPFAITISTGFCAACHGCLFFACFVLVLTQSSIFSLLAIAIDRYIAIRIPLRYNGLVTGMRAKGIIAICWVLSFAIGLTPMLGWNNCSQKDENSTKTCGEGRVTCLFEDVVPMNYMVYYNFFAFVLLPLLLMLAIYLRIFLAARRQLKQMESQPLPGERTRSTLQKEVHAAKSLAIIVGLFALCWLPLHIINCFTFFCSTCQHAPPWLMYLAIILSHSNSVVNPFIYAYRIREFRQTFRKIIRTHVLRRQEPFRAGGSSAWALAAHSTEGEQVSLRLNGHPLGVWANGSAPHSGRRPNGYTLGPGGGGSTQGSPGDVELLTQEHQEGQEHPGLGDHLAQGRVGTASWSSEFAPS
T2 sequence (P29274 whole entry): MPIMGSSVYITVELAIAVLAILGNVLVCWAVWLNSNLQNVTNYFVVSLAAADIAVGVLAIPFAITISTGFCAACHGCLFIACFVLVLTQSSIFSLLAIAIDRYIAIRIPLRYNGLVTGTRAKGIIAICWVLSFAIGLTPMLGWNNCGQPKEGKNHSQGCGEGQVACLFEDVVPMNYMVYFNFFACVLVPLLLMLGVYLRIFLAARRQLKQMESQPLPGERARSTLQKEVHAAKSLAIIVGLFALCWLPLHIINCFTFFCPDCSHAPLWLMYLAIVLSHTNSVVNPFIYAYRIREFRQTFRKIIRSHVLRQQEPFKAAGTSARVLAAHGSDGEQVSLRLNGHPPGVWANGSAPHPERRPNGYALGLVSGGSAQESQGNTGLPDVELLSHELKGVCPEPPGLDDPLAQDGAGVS

For `O[C@@H]1[C@H](O)[C@@H](CCl)O[C@H]1n1cnc2c(NC3CC4CCC3C4)ncnc21` (mixture of isomers) [Cl-ENBA, (±)-5'-chloro-5'-deoxy-N^6-endo-norbornyladenosine], the “Effect of i.c.v. dosing on Tb in Adora1−/− mice” value ([1]; 15 µg/mouse, i.c.v.) was “greatly diminished”, the “Hypothermia in mast cell-deficient Kit W-sh/W-sh mice” value ([1]; 1 mg/kg, i.p.) was “largely intact” and the “Hypothermia in Adora1−/− mice vs wild type” value ([1]; 3 mg/kg, i.p.) was “largely abolished”. The “Hypothermia in Adora1−/−;Adora3−/− mice” value ([1]; 3 mg/kg, i.p.) was “completely lost”, the “Hypothermia in Adora3−/− mice vs wild type” value ([1]; 3 mg/kg, i.p.) was “remained present” and the “Hypothermia in mast cell-deficient Kit W-sh/W-sh mice” value ([1]; 3 mg/kg, i.p.) was “significantly attenuated”. The “Hypothermia after pretreatment with raclopride” value (“Hypothermia … with raclopride” for short) [1, 17] was “not affected”, the “Effect on Tb” value [1, 18] was “dose-dependent hypothermia” and the “Effect on physical activity” value [1, 18] was “hypoactivity”. For the same molecule, the Anti-nociceptive effect [2] was “anti-nociceptive”, the Ki ([3]; read-out: Ki, mouse A1AR, current results, ±SEM) was 0.2 ± 0.01 nM and the “Time of TEE nadir” value ([4]; Adora3−/− mice, 3 mg/kg) was ~ 50 min. The “Time of Tb nadir” value ([4]; Adora3−/− mice, 3 mg/kg) was ~ 100 min, the “Effect on metabolic rate (total energy expenditure)” value [4, 19] was “reduced metabolic rate” and the “Effect on physical activity” value [4, 19] was “reduced”. For the same molecule, the Ki ([5]; ref Franchetti et al, 2009) was 1340 nM, the “Environmental temperature preference in thermal gradient” value ([6]; Adora3−/− mice, 3 mg/kg, i.p.) was “modest preference for a cooler place” and the Ki [7] was 1290 nM. The Ki ([8]; read-out: Ki, mouse A3AR, current results, ±SEM) was 2410 ± 325 nM.

In the case of `Nc1ncnc2c1ncn2[C@@H]1O[C@H](COP(=O)(O)O)[C@@H](O)[C@H]1O` [AMP, adenosine 5'-monophosphate], the “Hypothermia from i.c.v. dosing in Adora1−/− mice” value ([1]; 100 µg/mouse (~3.3 mg/kg), i.c.v.) is reported as “not attenuated”, the “Hypothermia in Adora1−/− mice” value ([1]; 100 mg/kg, i.p.) is reported as “intact” and the “Hypothermia in Adora1−/−;Adora3−/− double knockout mice” value ([1]; 100 mg/kg, i.p.) is reported as “intact”. For the same molecule, the “Hypothermia in Adora3−/− mice” value ([1]; 100 mg/kg, i.p.) was “intact”, the “Hypothermia in Kit W-sh/W-sh mice” value ([1]; 100 mg/kg, i.p.) was “partially intact” and the “Hypothermia … with raclopride” value ([1]; AMP 100 mg/kg, i.p., raclopride 2 mg/kg, data not shown) was “did not block”. For the same molecule, the “Hypothermia after pretreatment with pyrilamine” value ([1]; Adora1−/− mice, AMP 100 mg/kg, i.p., pyrilamine 10 mg/kg, data not shown) was “did not ablate”, the “Effect on Tb, i.c.v. infusion” value [1, 20] was “drop in Tb that was comparable to a 30-fold larger (100 mg/kg) systemic dose” and the “Effect on metabolic rate (total energy expenditure)” value ([4]; C57BL/6J mice, 100 mg/kg) was “drop in metabolic rate that preceded the hypothermia”. The “Time of TEE nadir” value ([4]; C57BL/6J mice, 100 mg/kg) was ~ 40 min, the “Time of Tb nadir” value ([4]; C57BL/6J mice, 100 mg/kg) was ~ 60 min and the “Torpor induction by large doses” value [9] was “induce torpor”. For the same molecule, the Ambient temperature preference ([6]; 100 mg/kg, i.p., not shown) was “did not observe a clear change”, the “Activity in thermal gradient” value [6, 20] was “without a significant drop in activity” and the “Activity in thermal gradient” value ([6]; C57BL/6J mice, 300 mg/kg, i.p.) was “became immobile”. The “Position in thermal gradient” value ([6]; C57BL/6J mice, 300 mg/kg, i.p.) was “moved to a cooler region”.

For `OC[C@H]1O[C@@H](n2cnc3c(NC4CCCC4)nc(Cl)nc32)[C@H](O)[C@@H]1O` [CCPA, 2-chloro-N^6-cyclopentyladenosine], the Ki ([10]; read-out: Ki, mouse A3AR, ref Alnouri et al, 2015) is listed as 16 nM and the Ki ([11]; ref Alnouri et al, 2015) is listed as 0.27 nM.

`CCNC(=O)[C@H]1O[C@@H](n2cnc3c(N)nc(NCCc4ccc(CCC(=O)O)cc4)nc32)[C@H](O)[C@@H]1O` [CGS21680] gave a Ki [3] of 193 ± 38 nM and a Ki [8] of 48 ± 11 nM.

In the case of `OC[C@H]1O[C@@H](n2cnc3c(NC4CCCCC4)ncnc32)[C@H](O)[C@@H]1O` [CHA, N^6-cyclohexyladenosine], the “Hypothermia in Adora1−/− mice vs wild type” value ([1]; 0.05 mg/kg, i.p.) is reported as “attenuated”, the “Hypothermia in Adora1−/−;Adora3−/− double knockout mice” value ([1]; 0.05 mg/kg, i.p.) is reported as “completely lost” and the “Hypothermia in Adora3−/− mice vs wild type” value ([1]; 0.05 mg/kg, i.p.) is reported as “attenuated”. The “Effect on Tb” value [1, 21] was “drop in Tb”, the “Effect on duration of hypothermia” value [1, 21] was “increase in duration of hypothermia” and the “Effect on physical activity” value [1, 21] was “reduced physical activity”. For the same molecule, the Ki [3] was 2.15 ± 0.37 nM.

In the case of `OC[C@H]1O[C@@H](n2cnc3c(NC4CCCC4)ncnc32)[C@H](O)[C@@H]1O` [CPA, N^6-cyclopentyladenosine], the “Hypothermia in Adora1−/− mice vs wild type” value ([1]; 0.3 mg/kg, i.p.) is reported as “not significantly attenuated”, the “Hypothermia in Adora3−/− mice vs wild type” value ([1]; 0.3 mg/kg, i.p.) is reported as “attenuated but still present” and the “Effect on Tb” value [1, 22] is reported as “dose-dependent (0.03–3 mg/kg, i.p.) hypothermia”. For the same molecule, the “Effect on physical activity” value [1, 22] was “reduction in physical activity”.

For `CNC(=O)[C@H]1O[C@@H](n2cnc3c(NCc4cccc(I)c4)nc(Cl)nc32)[C@H](O)[C@@H]1O` [Cl-IB-MECA, 2-chloro-N6-(3-iodobenzyl)adenosine-5'-N-methylcarboxamide], the Ki ([12]; ref Ge et al) is given as roughly 10000 nM.

In the case of `CCCn1c(=O)c2[nH]c(C3CCCC3)nc2n(CCC)c1=O` [DPCPX], the Ki ([12]; ref Kreckler et al) is listed as 598 nM, the “% inhibition at 10 µM, mouse A3AR” value ([10]; 10 µM, ref Kreckler et al, 2006) is listed as 0% and the Ki ([11]; ref Kreckler et al, 2006) is listed as 1.5 nM.

For `CNC(=O)[C@H]1O[C@@H](n2cnc3c(NCc4cccc(I)c4)ncnc32)[C@H](O)[C@@H]1O` [IB-MECA], the Ki ([12]; ref Ge et al) is given as roughly 1000 nM.

For `O[C@@H]1[C@@H]2C[C@@H]2C(n2cnc3c(NC(C4CC4)C4CC4)nc(Cl)nc32)[C@@H]1O` (stereo partly drawn) [MRS5474, (1R,2R,3S,5S)-4-(2-chloro-6-((dicyclopropylmethyl)amino)-9H-purin-9-yl)bicyclo[3.1.0]hexane-2,3-diol], the “Receptor mediating hypothermia (Adora1−/− and Adora3−/− mice)” value ([1]; 3 mg/kg, i.p.) was “via A3AR, without a clear contribution from A1AR”, the “Hypothermia … with raclopride” value [1, 17] was “not inhibited” and the “Effect on Tb” value ([1]; mice, doses in Fig. S2A,B) was “dose-dependent hypothermia”. The “Effect on physical activity” value ([1]; mice, doses in Fig. S2A,B and data not shown) was “hypoactivity” and the Ki ([5]; ref Tosh et al, 2012b) was 3950 nM.

For `COc1ccc(CN(CCN(C)C)c2ccccn2)cc1` [Pyrilamine, pyrilamine], the “Effect of H1R antagonist on MRS5474-induced hypothermia” value ([1]; MRS5474 at dose selective for A3AR, inhibitor dosed 15 min before agonist) was “inhibited hypothermia” and the “Effect of H1R antagonist on A1AR agonist-induced hypothermia” value ([1]; inhibitor dosed 15 min before agonist, Fig. S4A–D) was “did not block”.

With `O=S(=O)(O)c1ccc(Nc2ncnc3c2ncn3[C@@H]2O[C@H](CO)[C@@H](O)[C@H]2O)cc1` [SPA, N^6-(p-sulfo-phenyl)adenosine] the Ki [13] was 246 ± 21 nM, the inhibition at 10 µM [14] was 33 ± 2% and the Ki [3] was 1.08 ± 0.04 nM. The “Selectivity for binding to mouse A1AR over A3AR” value ([3]; from Table 1 Ki values) was ~ 3000 fold, the Ki [15] was 3780 ± 890 nM and the Ki [16] was 7.92 ± 1.55 nM. It also gave a Ki [8] of 3110 ± 183 nM.
